Usually IC50 stands for the concentration that inhibits the measured activity by half.

T1 sequence (Q86U44 whole entry): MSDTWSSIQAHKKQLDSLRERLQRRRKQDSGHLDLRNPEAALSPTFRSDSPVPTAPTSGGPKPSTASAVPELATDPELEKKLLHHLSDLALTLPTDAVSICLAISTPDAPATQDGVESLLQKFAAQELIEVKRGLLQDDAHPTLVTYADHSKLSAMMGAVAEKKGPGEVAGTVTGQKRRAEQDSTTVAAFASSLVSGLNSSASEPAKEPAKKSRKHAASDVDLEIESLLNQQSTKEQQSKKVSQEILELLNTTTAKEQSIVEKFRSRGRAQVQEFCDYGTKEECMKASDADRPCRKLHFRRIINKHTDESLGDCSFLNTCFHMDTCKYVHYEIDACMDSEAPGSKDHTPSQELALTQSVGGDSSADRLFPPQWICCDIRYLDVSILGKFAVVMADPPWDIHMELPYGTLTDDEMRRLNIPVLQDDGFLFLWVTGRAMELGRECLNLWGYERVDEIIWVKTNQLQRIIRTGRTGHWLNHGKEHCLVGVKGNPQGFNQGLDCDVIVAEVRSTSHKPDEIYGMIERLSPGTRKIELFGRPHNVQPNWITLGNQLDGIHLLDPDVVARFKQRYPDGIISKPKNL
T1 sequence (Q9HCE5 whole entry partner): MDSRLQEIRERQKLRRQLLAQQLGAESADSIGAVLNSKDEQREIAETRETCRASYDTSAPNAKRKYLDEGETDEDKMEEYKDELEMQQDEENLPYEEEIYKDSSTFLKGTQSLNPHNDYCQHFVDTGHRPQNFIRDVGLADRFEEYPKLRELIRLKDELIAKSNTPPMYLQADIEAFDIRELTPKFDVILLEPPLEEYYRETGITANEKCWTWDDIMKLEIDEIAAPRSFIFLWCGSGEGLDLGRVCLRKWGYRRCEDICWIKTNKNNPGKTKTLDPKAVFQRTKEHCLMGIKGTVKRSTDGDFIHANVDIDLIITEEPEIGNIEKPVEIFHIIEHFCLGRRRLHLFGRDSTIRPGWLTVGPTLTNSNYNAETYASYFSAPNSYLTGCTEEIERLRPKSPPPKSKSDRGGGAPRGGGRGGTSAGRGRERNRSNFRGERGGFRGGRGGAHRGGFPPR

The first experiment has as its target T1, METTL3/14 (Homo sapiens, UniProt Q86U44).
T1 construct: The enzyme used was full-length his-tagged METTL3; His; made in house
The experiment is described as follows: METTL3/14 methyltransferase assay (METTL3_14 RFMS, RapidFire mass spectrometry).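 Also: recombinant His-tagged METTL3 with FLAG-tagged METTL14 from baculovirus, SAH product quantified by mass spectrometry against isotope-labelled internal standards, 60 min at room temperature, scaled between no-RNA and DMSO-only wells.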 The following applies: 5 nM METTL3/14, 0.2 μM RNA substrate, 0.5 μM SAM; lower limit of the assay IC50=5 nM; Compounds 63-265; read-out: METTL3_14 RFMS IC50. In kind it is biochemical.
`CC(=O)N1CCN(Cc2ccc3nc(CNC(=O)c4cc(=O)n5ccccc5n4)cn3c2)CC1` [Compound 167, N-({6-[(4-acetylpiperazin-1-yl)methyl]imidazo[1,2-a]pyridin-2-yl}methyl)-4-oxo-4H-pyrido[1,2-a]pyrimidine-2-carboxamide]: the IC50 worked out at 8070 nM.

In the case of `O=C(NCc1cn2cc(CNC(CO)C3CCCCC3)ccc2n1)c1cc(=O)n2ccccc2n1` (centres unmarked) [Compound 168, N-[(6-{[(1-cyclohexyl-2-hydroxyethyl)amino]methyl}imidazo[1,2-a]pyridin-2-yl)methyl]-4-oxo-4H-pyrido[1,2-a]pyrimidine-2-carboxamide], the IC50 was determined as 114 nM. Still for that read-out and setting: with `O=C(NCc1cn2cc(CN3C4CCC3CC4)ccc2n1)c1cc(=O)n2ccccc2n1` [Compound 169, N-{[6-({7-azabicyclo [2.2.1]heptan-7-yl}methyl)imidazo[1,2-a]pyridin-2-yl]methyl}-4-oxo-4H-pyrido[1,2-a]pyrimidine-2-carboxamide] the figure was 391 nM; with `O=C(NCc1cn2cc(CNCC3CCCCC3)ccc2n1)c1cc(=O)c2ccccc2o1` [Compound 170, N-[(6-{[(cyclohexylmethyl)amino]methyl}imidazo[1,2-a]pyridin-2-yl)methyl]-4-oxo-4H-chromene-2-carboxamide], 29.4 nM. Same read-out and setting: for `O=C(NCc1cn2cc(CNCC3CCCCC3)ccc2n1)c1cc(=O)c2ccc(Cl)cc2o1` [Compound 171, 7-chloro-N-[(6-{[(cyclohexylmethyl)amino]methyl}imidazo[1,2-a]pyridin-2-yl)methyl]-4-oxo-4H-chromene-2-carboxamide] the value was 293 nM; for `O=C(NCc1cn2cc(CNCC3CCCCC3)ccc2n1)c1cc(=O)c2cc(Cl)ccc2o1` [Compound 172, 6-chloro-N-[(6-{[(cyclohexylmethyl)amino]methyl}imidazo[1,2-a]pyridin-2-yl)methyl]-4-oxo-4H-chromene-2-carboxamide], 309 nM; for `O=C(NCc1cn2cc(CNCC3CCCCC3)ccc2n1)c1cc(=O)n2c(n1)CCCC2` [Compound 175, N-[(6-{[(cyclohexylmethyl)amino]methyl}imidazo[1,2-a]pyridin-2-yl)methyl]-4-oxo-4H,6H,7H,8H, 9H-pyrido[1,2-a]pyrimidine-2-carboxamide], 214 nM. Turning to `Nc1ccc(C(=O)NCc2cn3cc(CNCC4CCCCC4)ccc3n2)cn1` [Compound 176, 6-amino-N-[(6-{[(cyclohexylmethyl)amino]methyl}imidazo[1,2-a]pyridin-2-yl)methyl] pyridine-3-carboxamide], the IC50 worked out at 909 nM. Still for that read-out and setting: for `O=C(NCc1cn2cc(COCc3ccccc3)ccc2n1)c1cc(=O)n2ccccc2n1` [Compound 177] the value was 1890 nM; for `O=C(NCc1cn2cc(CNCC3CCCCC3)ccc2n1)c1cc(=O)c2ccc(F)cc2o1` [Compound 180, N-[(6-{[(cyclohexylmethyl)amino]methyl}imidazo [1,2-a]pyridin-2-yl)methyl]-7-fluoro-4-oxo-4H-chromene-2-carboxamide], 889 nM; for `Cc1ccc2c(=O)cc(C(=O)NCc3cn4cc(CNCC5CCCCC5)ccc4n3)oc2c1` [Compound 181, N-[(6-{[(cyclohexylmethyl)amino]methyl}imidazo[1,2-a]pyridin-2-yl)methyl]-7-methyl-4-oxo-4H-chromene-2-carboxamide], 179 nM. Still for that read-out and setting: for `O=C(NCc1cn2cc(CNCC3CCCCC3)ccc2n1)c1cccc2[nH]ncc12` [Compound 182, N-[(6-{[(cyclohexyl-methyl)amino]methyl}imidazo[1,2-a]pyridin-2-yl)methyl]-1H-indazole-4-carboxamide] the value was 179 nM; for `O=C(NCc1cn2cc(CNCC3CCCCC3)ccc2n1)c1cc(=O)c2cccc(Cl)c2o1` [Compound 185, 8-chloro-N-[(6-{[(cyclohexylmethyl)amino]methyl}imidazo[1,2-a]pyridin-2-yl)methyl]-4-oxo-4H-chromene-2-carboxamide], 1070 nM; for `O=C(NCc1cn2cc(CNCC3CCCCC3)ccc2n1)c1cc(Br)cc2[nH]ncc12` [Compound 187, 6-bromo-N-[(6-{[(cyclohexylmethyl)amino]methyl}imidazo[1,2-a]pyridin-2-yl)methyl]-1H-indazole-4-carboxamide], 44.1 nM. The same measure, in the same setting: with `CC(NCC1CCCCC1)c1ccc2nc(CNC(=O)c3cc(=O)n4ccccc4n3)cn2c1` (centres unmarked) [Compound 189, N-[(6-{1-[(cyclohexyl-methyl)amino]ethyl}imidazo [1,2-a]pyridin-2-yl)methyl]-4-oxo-4H-pyrido[1,2-a]pyrimidine-2-carboxamide] the figure was 132 nM; with `O=C(NCc1cn2cc(CNCC3CCCCC3)ccc2n1)c1cc(Cl)cc2[nH]ncc12` [Compound 190, 6-chloro-N-[(6-{[(cyclohexylmethyl)amino]methyl}imidazo[1,2-a]pyridin-2-yl)methyl]-1H-indazole-4-carboxamide], 56.1 nM; with `CC1(C)CCCCN1Cc1ccc2nc(CNC(=O)c3cc(=O)n4ccccc4n3)cn2c1` [Compound 194, N-({6-[(2,2-dimethylpiperidin-1-yl)methyl]imidazo[1,2-a]pyridin-2-yl}methyl)-4-oxo-4H-pyrido[1,2-a]pyrimidine-2-carboxamide], 305 nM. With `O=C(NCc1cn2cc(CNc3ccc(F)cn3)ccc2n1)c1cc(=O)n2ccccc2n1` [Compound 196, N-[(6-{[(5-fluoropyridin-2-yl)amino]methyl}imidazo[1,2-a]pyridin-2-yl)methyl]-4-oxo-4H-pyrido[1,2-a] pyrimidine-2-carboxamide], the IC50 worked out at 597 nM. Still for that read-out and setting: with `O=C(NCc1cn2cc(CNC3(C4CC4)CC3)ccc2n1)c1cc(=O)n2ccccc2n1` [Compound 197, N-({6-[({[1,1′-bi(cyclopropane)]-1-yl}amino)methyl]imidazo [1,2-a]pyridin-2-yl}methyl)-4-oxo-4H-pyrido [1,2-a]pyrimidine-2-carboxamide] the figure was 84.8 nM. Same read-out and setting: for `O=C(NCc1cn2cc(CNCC3(F)CCCC3)ccc2n1)c1cc(=O)n2ccccc2n1` [Compound 198, N-{[6-({[(1-fluorocyclopentyl)methyl]amino}methyl)imidazo [1,2-a]pyridin-2-yl]methyl}-4-oxo-4H-pyrido [1,2-a]pyrimidine-2-carboxamide] the value was 44.1 nM; for `CC1CN(Cc2ccc3nc(CNC(=O)c4cc(=O)n5ccccc5n4)cn3c2)CC(C)O1` (centres unmarked) [Compound 199, N-({6-[(2,6-dimethylmorpholin-4-yl)methyl]imidazo[1,2-a]pyridin-2-yl}methyl)-4-oxo-4H-pyrido[1,2-a]pyrimidine-2-carboxamide], 1860 nM. Same read-out and setting: for `COC(=O)C1CCCN(Cc2ccc3nc(CNC(=O)c4cc(=O)n5ccccc5n4)cn3c2)C1` (centres unmarked) [Compound 200, methyl 1-({2-[({4-oxo-4H-pyrido[1,2-a]pyrimidin-2-yl}formamido)methyl]imidazo [1,2-a]pyridin-6-yl}methyl) piperidine-3-carboxylate] the value was 1260 nM.

Staying with this experiment, now noted: read-out: METTL3_14 RFMS IC50.
Consider `O=C(NCc1cn2cc(NCCc3ccccc3)ccc2n1)c1cc(=O)n2ccccc2n1` [Compound 191, 4-oxo-N-({6-[(2-phenylethyl)amino]imidazo[1,2-a]pyridin-2-yl}methyl)-4H-pyrido[1,2-a]pyrimidine-2-carboxamide], for which the IC50 was found to be 4790 nM.

(Values after patent US12358915B2, “METTL3 inhibitory compounds” (STORM THERAPEUTICS LTD., priority 2019, dated 2025).)
